According to patent US12459951B2, “Compounds that interact with RAS superfamily proteins for treatment of cancers, inflammatory diseases, rasopathies, and fibrotic disease” (SHY Therapeutics, LLC, priority 2022, dated 2025):

Columns and labels:
Akt phosphorylation = assay: Akt Phosphorylation Assay (western blot), Panc-1; assay type: cell-based, human; details: at 10 μM, * = activation
Procedure, shortened: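 Phospho-Akt (Ser473) was measured by western blot in lysates of KRas G12D Panc-1 cells exposed to test compound for 6 h at 37 °C, either at 10 μM final with 0.3% DMSO or as serial dilutions for IC50. One format used overnight 0.5% FBS starvation followed by a 15 min pulse of 1.5 ng/ml EGF. The other used cells in 10% FBS with no stimulation.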

KRas Q61H mutant = assay: Ras GTP Binding Domain Inhibition Assay (Ras Superfamily Assay); details: 20 μM compound; for KRas Q61H mutant + SOS: % inh.: with SOS; for KRas Q61H mutant: % inh.: without SOS
Procedure, shortened: (§1)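 Ni-plate capture of His-tagged protein (10-30 μg/mL, o/n 4° C); cpd 20 μM or dilution series, 1% DMSO, 3 h RT ± Sos 556-1049 last h; 100 nM Cy-labelled GTP 45 min RT; 3× wash; fluorescence read.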

Rac-1 = target: T1, Rac-1 (Homo sapiens, UniProt P63000); assay: as above; details: read-out: Rac-1: % inh.
T1 construct: made in house
Procedure, shortened: as §1

Rho-A = target: T2, Rho-A (Homo sapiens, UniProt P61586); assay: as above; details: read-out: Rho-A: % inh..
T2 construct: made in house
T2 sequence (P61586 whole entry): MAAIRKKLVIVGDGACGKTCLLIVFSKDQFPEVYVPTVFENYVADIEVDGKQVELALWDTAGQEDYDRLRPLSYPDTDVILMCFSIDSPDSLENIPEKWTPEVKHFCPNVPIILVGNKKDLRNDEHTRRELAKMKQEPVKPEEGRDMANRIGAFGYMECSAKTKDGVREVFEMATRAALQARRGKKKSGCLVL
Procedure, shortened: as §1

KRas G12C mutant = assay: as above; details: 20 μM compound; for KRas G12C mutant + SOS: % inh.: with SOS; for KRas G12C mutant: % inh.: without SOS
Procedure, shortened: as §1

KRas wild type = assay: as above; details: 20 μM compound; for KRas wild type + SOS: % inh.: with SOS; for KRas wild type: % inh.: without SOS
Procedure, shortened: as §1

KRas G12D mutant = assay: as above; details: 20 μM compound; for KRas G12D mutant + SOS: % inh.: with SOS; for KRas G12D mutant: % inh.: without SOS
Procedure, shortened: as §1

Row | Compound | KRas Q61H mutant + SOS: % inh. (KRas Q61H mutant) | KRas Q61H mutant: % inh. (KRas Q61H mutant) | inhibition at 20 µM (Rac-1) | inhibition at 20 µM (Rho-A) | KRas G12C mutant + SOS: % inh. (KRas G12C mutant) | KRas G12C mutant: % inh. (KRas G12C mutant) | KRas wild type + SOS: % inh. (KRas wild type) | KRas wild type: % inh. (KRas wild type) | KRas G12D mutant + SOS: % inh. (KRas G12D mutant) | KRas G12D mutant: % inh. (KRas G12D mutant) | % inh of Akt phosphorylation in Panc-1 (Akt phosphorylation)
1 | CO[C@H]1CC[C@@H](Nc2nc(-c3ccccn3)nn3cc(-c4ccn(C(C)C)n4)c(-c4ccccc4)c23)C1 (racemic) [Compound 24, rac 6-(1-Isopropyl-1H-pyrazol-3-yl)-N-((1R,3S)-3-methoxycyclopentyl)-5-phenyl-2-(pyridin-2-yl)pyrrolo[2,1-f][1,2,4]triazin-4-amine] | 0 (0 = 0% inhibition) | 0 (0 = 0% inhibition) | 0% | 0% | 0 (0 = 0% inhibition) | 0 (0 = 0% inhibition) | 0 (0 = 0% inhibition) | 0 (0 = 0% inhibition) | 0 (0 = 0% inhibition) | 0 (0 = 0% inhibition) | A* (1-25% activation)
2 | COc1ccnc(Nc2nc(-c3nccn3C)nn3cc(-c4ccn(C(C)C)n4)c(C)c23)n1 [Compound 53, 6-(1-Isopropyl-1H-pyrazol-3-yl)-N-(4-methoxypyrimidin-2-yl)-5-methyl-2-(1-methyl-1H-imidazol-2-yl)pyrrolo[2,1-f][1,2,4]triazin-4-amine] | D (D = 76-100% inhibition) | D (D = 76-100% inhibition) | 76 to 100% | 76 to 100% | C (C = 50-75% inhibition) | C (C = 50-75% inhibition) | C (C = 50-75% inhibition) | C (C = 50-75% inhibition) | C (C = 50-75% inhibition) | C (C = 50-75% inhibition) | A* (1-25% activation)
3 | Cc1c(-c2ccn(C(C)C)n2)cn2nc(-c3nccn3C)nc(Nc3ccncn3)c12 [Compound 55, 6-(1-Isopropyl-1H-pyrazol-3-yl)-5-methyl-2-(1-methyl-1H-imidazol-2-yl)-N-(pyrimidin-4-yl)pyrrolo[2,1-f][1,2,4]triazin-4-amine] | D (D = 76-100% inhibition) | D (D = 76-100% inhibition) | 76 to 100% | 76 to 100% | C (C = 50-75% inhibition) | B (B = 26-49% inhibition) | C (C = 50-75% inhibition) | D (D = 76-100% inhibition) | C (C = 50-75% inhibition) | D (D = 76-100% inhibition) | A* (1-25% activation)
4 | Cc1c(-c2ccn(C(C)C)n2)cn2nc(-c3nccn3C)nc(Nc3ccn(C(C)C)n3)c12 [Compound 72, N,6-bis(1-Isopropyl-1H-pyrazol-3-yl)-5-methyl-2-(1-methyl-1H-imidazol-2-yl)pyrrolo[2,1-f][1,2,4]triazin-4-amine] | D (D = 76-100% inhibition) | C (C = 50-75% inhibition) | 76 to 100% | 76 to 100% | C (C = 50-75% inhibition) | C (C = 50-75% inhibition) | C (C = 50-75% inhibition) | C (C = 50-75% inhibition) | D (D = 76-100% inhibition) | D (D = 76-100% inhibition) | D* (85-100% activation)
5 | Cc1c(-c2ccn(C(C)C)n2)cn2nc(-c3nccn3C)nc(Nc3cnccn3)c12 [Compound 62, 6-(1-Isopropyl-1H-pyrazol-3-yl)-5-methyl-2-(1-methyl-1H-imidazol-2-yl)-N-(pyrazin-2-yl)pyrrolo[2,1-f][1,2,4]triazin-4-amine] | A (A = 1-25% inhibition) | A (A = 1-25% inhibition) | 50 to 75% | 26 to 49% | 0 (0 = 0% inhibition) | A (A = 1-25% inhibition) | 0 (0 = 0% inhibition) | A (A = 1-25% inhibition) | A (A = 1-25% inhibition) | B (B = 26-49% inhibition) | D* (85-100% activation)
6 | COc1ccc(-c2cn3nc(-c4nccn4C)nc(Nc4cc(OC)ncn4)c3c2C)cn1 [Compound 66, 6-(6-Methoxypyridin-3-yl)-N-(6-methoxypyrimidin-4-yl)-5-methyl-2-(1-methyl-1H-imidazol-2-yl)pyrrolo[2,1-f][1,2,4]triazin-4-amine] | D (D = 76-100% inhibition) | D (D = 76-100% inhibition) | 76 to 100% | 76 to 100% | C (C = 50-75% inhibition) | D (D = 76-100% inhibition) | D (D = 76-100% inhibition) | D (D = 76-100% inhibition) | D (D = 76-100% inhibition) | D (D = 76-100% inhibition) | D* (85-100% activation)

Now from value to compound, other results behind:

Row | KRas Q61H mutant + SOS: % inh. (KRas Q61H mutant) | KRas Q61H mutant: % inh. (KRas Q61H mutant) | inhibition at 20 µM (Rac-1) | inhibition at 20 µM (Rho-A) | KRas G12C mutant + SOS: % inh. (KRas G12C mutant) | KRas G12C mutant: % inh. (KRas G12C mutant) | KRas wild type + SOS: % inh. (KRas wild type) | KRas wild type: % inh. (KRas wild type) | KRas G12D mutant + SOS: % inh. (KRas G12D mutant) | KRas G12D mutant: % inh. (KRas G12D mutant) | Compound | % inh of Akt phosphorylation in Panc-1 (Akt phosphorylation)
7 | A (A = 1-25% inhibition) | A (A = 1-25% inhibition) | 26 to 49% | 1 to 25% | A (A = 1-25% inhibition) | A (A = 1-25% inhibition) | A (A = 1-25% inhibition) | A (A = 1-25% inhibition) | A (A = 1-25% inhibition) | A (A = 1-25% inhibition) | COc1cccc(-c2cn3nc(-c4nccn4C)nc(O)c3c2-c2ccccc2)c1Cl [Compound 28, 6-(2-Chloro-3-methoxyphenyl)-2-(1-methyl-1H-imidazol-2-yl)-5-phenylpyrrolo[2,1-f][1,2,4]triazin-4-ol] | A* (1-25% activation)
8 | A (A = 1-25% inhibition) | A (A = 1-25% inhibition) | 0% | 1 to 25% | 0 (0 = 0% inhibition) | 0 (0 = 0% inhibition) | 0 (0 = 0% inhibition) | 0 (0 = 0% inhibition) | A (A = 1-25% inhibition) | A (A = 1-25% inhibition) | COc1cccc(-c2cn3nc(-c4nccn4C)nc(N[C@H]4C[C@H](OC)C4)c3c2-c2ccn(C)n2)c1F [Compound 47, 6-(2-Fluoro-3-methoxyphenyl)-N-((1r,3r)-3-methoxycyclobutyl)-2-(1-methyl-1H-imidazol-2-yl)-5-(1-methyl-1H-pyrazol-3-yl)pyrrolo[2,1-f][1,2,4]triazin-4-amine] | C* (46-84% activation)
9 | 0 (0 = 0% inhibition) | A (A = 1-25% inhibition) | 1 to 25% | 1 to 25% | 0 (0 = 0% inhibition) | A (A = 1-25% inhibition) | 0 (0 = 0% inhibition) | A (A = 1-25% inhibition) | A (A = 1-25% inhibition) | A (A = 1-25% inhibition) | Cc1c(-c2ccn(C(C)C)n2)cn2nc(-c3nccn3C)nc(Nc3cc(C4CC4)no3)c12 [Compound 69, 3-Cyclopropyl-N-(6-(1-isopropyl-1H-pyrazol-3-yl)-5-methyl-2-(1-methyl-1H-imidazol-2-yl)pyrrolo[2,1-f][1,2,4]triazin-4-yl)isoxazol-5-amine] | D* (85-100% activation)
10 | D (D = 76-100% inhibition) | C (C = 50-75% inhibition) | 76 to 100% | 76 to 100% | C (C = 50-75% inhibition) | D (D = 76-100% inhibition) | D (D = 76-100% inhibition) | D (D = 76-100% inhibition) | D (D = 76-100% inhibition) | D (D = 76-100% inhibition) | COc1ccnc(Nc2nc(-c3nccn3C)nn3cc(-c4ccn(C(C)C)n4)c(C)c23)c1 [Compound 58, 6-(1-Isopropyl-1H-pyrazol-3-yl)-N-(4-methoxypyridin-2-yl)-5-methyl-2-(1-methyl-1H-imidazol-2-yl)pyrrolo[2,1-f][1,2,4]triazin-4-amine] | A* (1-25% activation)
